One assay concerns MDA‐MB‐468. The experiment in a line: Cell growth inhibition, CellTiter‐Glo (CTG). The class given is cell-based. To be noted: Homo sapiens, MDA-MB-468, 120 h; CTG, 5 days, n = 3. How it is done:
(§1) All cells were grown in a humidified incubator at 37 °C and 5% CO2.
(§2) […] […] Relative viability was calculated by normalizing the raw luminescence counts of the treated groups to those of the DMSO control groups. IC₅₀ values were calculated using sigmoidal dose‐response curve fitting with GraphPad Prism 9.0 software.

Another assay concerns MDA‐MB‐231. Description: Cell growth inhibition, CellTiter‐Glo (CTG). The class given is cell-based. The settings on record: Homo sapiens, MDA-MB-231, 120 h, read-out: IC50 MDA‐MB‐231; CTG, 5 days, n = 3. How it is done: as §1, §2
The next assay addresses T1, ATR (Homo sapiens, UniProt Q13535).
T1 construct: purchased Eurofins 14-953
Description: ATR kinase inhibition, Mobility Shift Assay. The class given is biochemical. To be noted: n = 3, mean ± SD. How it is done: The in vitro ATR kinase inhibitory activities were determined by ChemPartner Co., Ltd. (Shanghai, China) using the Mobility Shift Assay. The tested compound was dissolved with DMSO and diluted to 1000/3 × of the final desired highest inhibitor concentration in the reaction. […] The assay wells were incubated at 28 °C for 4 h.

A further assay addresses PARP1 (Homo sapiens, UniProt P09874). Description: PARP enzymatic inhibition ELISA (PARP1). The class given is biochemical. The settings on record: n = 3, mean ± SD. How it is done:
The PARP activity assay was performed by ChemPartner (Shanghai, China). Each well was precoated with histone (final conc.: 100 ng mL^−1) diluted in PBS buffer (contains 10 mmol L^−1 NaH2PO4 and 150 mmol L^−1 NaCl, pH 7.4) by incubation at 4 °C overnight. […] The reaction was initiated by the addition of 10 µL of PARP (final conc.: 0.007 nM/well) at room temperature for 60 min. Add 20 µL of anti‐Poly/Mono‐ADP Ribose Rabbit mAb. Incubate for 1.5 h at room temperature and wash the plate three times using PBST buffer. […] Incubate for 1 h at room temperature and wash the plate three times using PBST buffer. Add 25 µL Femto‐ECL Substrate A and Femto‐ECL Substrate B (1:1) mix. Immediately read chemiluminescence on Envision (Revvity, USA).
For orientation: In an ELISA, binding on a coated surface is turned into a signal by an enzyme label.

For the next assay, the system named is MDA‐MB‐436. Description: Cell growth inhibition, CellTiter‐Glo (CTG). The class given is cell-based. The settings on record: Homo sapiens; for inhibition at 5 µM: MDA-MB-436, read-out: MDA‐MB‐436 inhibitory rate at certain concentration; for IC50: MDA-MB-436, 120 h, CTG, 5 days, n = 3. How it is done: as §1
Growth viability was determined by the CellTiter‐Glo luminescent viability assay (Promega) 5 days after drug treatment. Cell viability was measured immediately after dosing (Day 0) and after 5 days of incubation using CellTiter‐Glo (CTG, Promega, G7573). Relative viability was calculated by normalizing the raw luminescence counts of the treated groups to those of the DMSO control groups. IC₅₀ values were calculated using sigmoidal dose‐response curve fitting with GraphPad Prism 9.0 software.

From PMC12362783 (Advanced Science, 2025) come the findings set out here.

T1 sequence (Q13535 whole entry): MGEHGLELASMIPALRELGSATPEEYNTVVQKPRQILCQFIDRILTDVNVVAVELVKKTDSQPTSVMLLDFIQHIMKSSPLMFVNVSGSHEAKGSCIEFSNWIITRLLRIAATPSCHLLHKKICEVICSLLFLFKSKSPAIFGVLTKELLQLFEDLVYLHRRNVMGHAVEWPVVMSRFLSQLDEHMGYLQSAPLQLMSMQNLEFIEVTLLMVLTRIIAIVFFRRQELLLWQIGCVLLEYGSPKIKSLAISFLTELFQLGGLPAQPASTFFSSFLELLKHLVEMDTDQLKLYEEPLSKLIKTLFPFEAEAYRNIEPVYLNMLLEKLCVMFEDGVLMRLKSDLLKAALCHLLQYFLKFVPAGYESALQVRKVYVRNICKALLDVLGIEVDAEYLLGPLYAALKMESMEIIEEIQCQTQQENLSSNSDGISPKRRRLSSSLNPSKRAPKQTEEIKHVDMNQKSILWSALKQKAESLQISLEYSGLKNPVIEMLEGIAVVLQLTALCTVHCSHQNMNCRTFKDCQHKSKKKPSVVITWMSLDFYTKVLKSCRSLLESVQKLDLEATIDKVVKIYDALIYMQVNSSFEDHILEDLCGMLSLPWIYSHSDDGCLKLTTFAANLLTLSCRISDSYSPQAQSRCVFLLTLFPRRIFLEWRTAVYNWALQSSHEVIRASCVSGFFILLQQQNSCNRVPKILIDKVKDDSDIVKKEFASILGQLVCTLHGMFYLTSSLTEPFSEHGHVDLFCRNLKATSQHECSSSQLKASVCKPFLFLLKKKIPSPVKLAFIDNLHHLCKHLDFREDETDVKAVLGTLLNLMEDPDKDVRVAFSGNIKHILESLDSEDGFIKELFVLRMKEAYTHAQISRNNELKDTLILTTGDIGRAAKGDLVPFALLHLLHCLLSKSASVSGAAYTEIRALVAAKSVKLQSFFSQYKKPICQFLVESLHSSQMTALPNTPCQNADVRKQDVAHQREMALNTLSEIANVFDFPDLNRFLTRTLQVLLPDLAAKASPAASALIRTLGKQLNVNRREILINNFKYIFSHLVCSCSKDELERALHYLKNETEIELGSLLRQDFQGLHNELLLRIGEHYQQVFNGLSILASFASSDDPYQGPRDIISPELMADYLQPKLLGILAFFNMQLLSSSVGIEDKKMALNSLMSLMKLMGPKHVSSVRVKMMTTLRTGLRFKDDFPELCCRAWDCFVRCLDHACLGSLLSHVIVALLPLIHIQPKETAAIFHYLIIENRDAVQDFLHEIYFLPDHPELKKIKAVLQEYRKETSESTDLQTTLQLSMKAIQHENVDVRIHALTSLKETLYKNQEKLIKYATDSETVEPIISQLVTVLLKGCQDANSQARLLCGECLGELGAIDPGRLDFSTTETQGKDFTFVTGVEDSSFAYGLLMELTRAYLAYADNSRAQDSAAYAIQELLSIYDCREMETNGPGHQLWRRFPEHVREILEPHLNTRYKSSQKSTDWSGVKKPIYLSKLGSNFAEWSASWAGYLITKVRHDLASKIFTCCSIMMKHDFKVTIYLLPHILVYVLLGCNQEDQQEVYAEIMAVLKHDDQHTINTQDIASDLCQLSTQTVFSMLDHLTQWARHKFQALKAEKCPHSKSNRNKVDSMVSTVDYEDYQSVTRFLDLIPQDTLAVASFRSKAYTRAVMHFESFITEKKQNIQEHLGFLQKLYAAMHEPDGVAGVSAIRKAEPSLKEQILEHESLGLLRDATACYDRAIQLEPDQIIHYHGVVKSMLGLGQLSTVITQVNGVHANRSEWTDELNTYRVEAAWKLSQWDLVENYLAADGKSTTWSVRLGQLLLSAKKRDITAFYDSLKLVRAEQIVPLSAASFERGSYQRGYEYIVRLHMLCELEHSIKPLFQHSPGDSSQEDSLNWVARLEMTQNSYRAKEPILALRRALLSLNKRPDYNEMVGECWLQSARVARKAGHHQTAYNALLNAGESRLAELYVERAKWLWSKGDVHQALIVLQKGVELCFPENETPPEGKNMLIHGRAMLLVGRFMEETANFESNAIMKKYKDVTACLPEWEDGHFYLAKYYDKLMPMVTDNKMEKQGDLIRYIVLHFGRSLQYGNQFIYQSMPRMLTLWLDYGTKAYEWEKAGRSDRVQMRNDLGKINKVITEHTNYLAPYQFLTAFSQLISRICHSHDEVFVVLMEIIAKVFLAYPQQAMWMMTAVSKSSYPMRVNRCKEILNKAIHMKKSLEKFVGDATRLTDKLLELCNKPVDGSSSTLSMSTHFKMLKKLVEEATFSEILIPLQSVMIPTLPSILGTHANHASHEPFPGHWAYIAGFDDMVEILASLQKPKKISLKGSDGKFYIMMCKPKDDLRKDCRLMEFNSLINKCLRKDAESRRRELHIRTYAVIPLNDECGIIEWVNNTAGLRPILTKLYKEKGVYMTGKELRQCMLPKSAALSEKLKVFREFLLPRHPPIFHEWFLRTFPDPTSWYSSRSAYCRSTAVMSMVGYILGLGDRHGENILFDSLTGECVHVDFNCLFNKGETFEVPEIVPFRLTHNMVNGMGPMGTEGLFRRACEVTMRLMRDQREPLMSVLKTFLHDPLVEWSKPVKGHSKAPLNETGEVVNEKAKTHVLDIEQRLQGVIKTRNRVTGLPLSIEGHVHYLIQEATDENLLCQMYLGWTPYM
T1 sequence (Q8WXE1 whole entry partner): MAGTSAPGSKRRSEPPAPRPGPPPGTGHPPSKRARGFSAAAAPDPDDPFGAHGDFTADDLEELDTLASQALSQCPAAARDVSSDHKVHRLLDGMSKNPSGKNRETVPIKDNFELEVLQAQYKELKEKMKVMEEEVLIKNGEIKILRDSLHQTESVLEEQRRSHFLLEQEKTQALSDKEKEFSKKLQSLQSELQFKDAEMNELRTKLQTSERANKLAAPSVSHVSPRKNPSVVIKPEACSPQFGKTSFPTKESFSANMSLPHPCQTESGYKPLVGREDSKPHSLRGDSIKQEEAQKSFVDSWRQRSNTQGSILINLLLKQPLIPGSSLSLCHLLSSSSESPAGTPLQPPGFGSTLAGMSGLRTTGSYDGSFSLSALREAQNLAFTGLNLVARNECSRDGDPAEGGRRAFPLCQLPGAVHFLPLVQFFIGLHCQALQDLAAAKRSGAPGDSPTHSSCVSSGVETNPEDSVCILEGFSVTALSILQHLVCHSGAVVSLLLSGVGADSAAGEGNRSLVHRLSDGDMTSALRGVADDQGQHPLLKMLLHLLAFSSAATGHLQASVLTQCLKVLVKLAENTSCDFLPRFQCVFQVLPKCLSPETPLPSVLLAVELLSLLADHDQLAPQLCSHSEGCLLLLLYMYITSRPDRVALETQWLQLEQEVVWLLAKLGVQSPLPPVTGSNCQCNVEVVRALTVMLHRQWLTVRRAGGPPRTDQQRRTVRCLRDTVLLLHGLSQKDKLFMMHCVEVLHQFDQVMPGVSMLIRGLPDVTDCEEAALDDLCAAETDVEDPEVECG
Sequence of PARP1 (P09874 whole entry): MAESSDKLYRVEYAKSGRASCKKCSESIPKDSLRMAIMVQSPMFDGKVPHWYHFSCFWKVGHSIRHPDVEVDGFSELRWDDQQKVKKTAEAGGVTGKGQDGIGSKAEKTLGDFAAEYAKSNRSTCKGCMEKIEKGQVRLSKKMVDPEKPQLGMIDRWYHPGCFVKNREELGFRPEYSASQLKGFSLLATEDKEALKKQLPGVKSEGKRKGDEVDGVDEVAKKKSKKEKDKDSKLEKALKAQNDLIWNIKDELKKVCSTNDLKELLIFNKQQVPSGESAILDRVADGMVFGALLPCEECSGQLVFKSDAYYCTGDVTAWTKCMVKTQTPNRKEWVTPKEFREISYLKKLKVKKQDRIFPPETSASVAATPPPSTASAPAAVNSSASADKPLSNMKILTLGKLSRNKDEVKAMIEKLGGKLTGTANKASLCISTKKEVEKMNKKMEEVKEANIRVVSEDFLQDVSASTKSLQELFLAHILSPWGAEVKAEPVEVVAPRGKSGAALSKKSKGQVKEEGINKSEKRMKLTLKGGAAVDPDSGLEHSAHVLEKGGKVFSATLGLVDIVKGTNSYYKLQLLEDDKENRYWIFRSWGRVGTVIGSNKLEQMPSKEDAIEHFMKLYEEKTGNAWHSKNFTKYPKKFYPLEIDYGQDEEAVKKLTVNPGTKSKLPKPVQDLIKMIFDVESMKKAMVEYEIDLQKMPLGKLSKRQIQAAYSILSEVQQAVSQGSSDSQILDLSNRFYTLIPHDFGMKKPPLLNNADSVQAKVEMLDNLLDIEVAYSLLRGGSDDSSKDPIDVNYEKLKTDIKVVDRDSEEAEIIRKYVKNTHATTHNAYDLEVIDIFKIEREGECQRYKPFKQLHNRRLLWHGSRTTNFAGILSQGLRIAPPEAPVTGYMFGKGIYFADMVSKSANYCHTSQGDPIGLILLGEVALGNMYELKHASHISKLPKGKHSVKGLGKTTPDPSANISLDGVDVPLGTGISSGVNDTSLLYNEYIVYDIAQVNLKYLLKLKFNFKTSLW

Usually IC50 stands for the midpoint of a concentration-inhibition curve. Take `C[C@@H]1COCCN1c1cc(CNC(=O)CCNC(=O)c2cc(Cc3n[nH]c(=O)c4ccccc34)ccc2F)nc(-c2ccnc3[nH]ccc23)n1` [Compound B3, (R)‐2‐fluoro‐N‐(3‐(((6‐(3‐methylmorpholino)‐2‐(1H‐pyrrolo[2,3‐b]pyridin‐4‐yl)pyrimidin‐4‐yl)methyl)amino)‐3‐oxopropyl)‐5‐((4‐oxo‐3,4‐dihydrophthalazin‐1‐yl)methyl)benzamide]: the IC50 in the assay on MDA‐MB‐468 is 17.7 ± 0.53 µM; in the assay on MDA‐MB‐231 it was 14.3 ± 1.4 µM; at ATR, 0.347 ± 0.0157 µM; on PARP1, 0.0095 ± 0.0018 µM. In the assay with MDA‐MB‐436, the inhibition at 5 µM is 34.9%.
For `C[C@@H]1COCCN1c1cc(CN)nc(-c2ccnc3[nH]ccc23)n1` [Compound 28], the IC50 is 40.8 ± 4.45 µM in the assay with MDA‐MB‐468 and greater than 50 µM with MDA‐MB‐231. Also, the inhibition at 5 µM in the assay with MDA‐MB‐436 amounted to 21.4%.
For the molecule `C[C@@H]1COCCN1c1cc(CNS(=O)(=O)C2CCN(C(=O)c3cc(Cc4n[nH]c(=O)c5ccccc45)ccc3F)CC2)nc(-c2ccnc3[nH]ccc23)n1` [Compound B6, (R)‐1‐(2‐fluoro‐5‐((4‐oxo‐3,4‐dihydrophthalazin‐1‐yl)methyl)benzoyl)‐N‐((6‐(3‐methylmorpholino)‐2‐(1H‐pyrrolo[2,3‐b]pyridin‐4‐yl)pyrimidin‐4‐yl)methyl)piperidine‐4‐sulfonamide], the half-inhibitory concentration (IC50) came to 0.7 ± 0.07 µM in the assay with MDA‐MB‐468; 3.96 ± 2.05 µM in the assay with MDA‐MB‐231; 0.112 ± 0.0053 µM on ATR; 0.00046 ± 0.0001 µM against PARP1; 0.78 ± 0.08 µM with MDA‐MB‐436.
In the same order, the values of `C[C@@H]1COCCN1c1cc(CNC(=O)C2CCN(C(=O)c3cc(Cc4n[nH]c(=O)c5ccccc45)ccc3F)CC2)nc(-c2ccnc3[nH]ccc23)n1` [Compound B5, (R)‐1‐(2‐fluoro‐5‐((4‐oxo‐3,4‐dihydrophthalazin‐1‐yl)methyl)benzoyl)‐N‐((6‐(3‐methylmorpholino)‐2‐(1H‐pyrrolo[2,3‐b]pyridin‐4‐yl)pyrimidin‐4‐yl)methyl)piperidine‐4‐carboxamide] are 1.46 ± 0.1 µM, 4.48 ± 1.08 µM, 0.0367 ± 0.0046 µM, 0.0012 ± 0.0003 µM and 1.19 ± 0.23 µM.
In the same order, the values of `C[C@@H]1COCCN1c1cc(CNC(=O)N2CCN(C(=O)c3cc(Cc4n[nH]c(=O)c5ccccc45)ccc3F)CC2)nc(-c2ccnc3[nH]ccc23)n1` [Compound B7, (R)‐4‐(2‐fluoro‐5‐((4‐oxo‐3,4‐dihydrophthalazin‐1‐yl)methyl)benzoyl)‐N‐((6‐(3‐methylmorpholino)‐2‐(1H‐pyrrolo[2,3‐b]pyridin‐4‐yl)pyrimidin‐4‐yl)methyl)piperazine‐1‐carboxamide] are 0.96 ± 0.04 µM, 1.6 ± 0.09 µM, 0.0788 ± 0.0062 µM, 0.00076 ± 9e-05 µM and 1.29 ± 0.56 µM.
Take `C[C@@H]1COCCN1c1cc(C2(N)CC2)nc(-c2ccnc3[nH]ccc23)n1` [Compound 23]: the IC50 in the assay with MDA‐MB‐468 was greater than 50 µM; in the assay with MDA‐MB‐231, 40.7 ± 1.36 µM. In addition, the inhibition at 5 µM in the assay with MDA‐MB‐436 was 20.5%.
Consider `C[C@@H]1COCCN1c1cc(CNC(=O)c2ccc(CN3CCN(C(=O)c4cc(Cc5n[nH]c(=O)c6ccccc56)ccc4F)CC3)cc2)nc(-c2ccnc3[nH]ccc23)n1` [Compound B12, (R)‐4‐((4‐(2‐fluoro‐5‐((4‐oxo‐3,4‐dihydrophthalazin‐1‐yl)methyl)benzoyl)piperazin‐1‐yl)methyl)‐N‐((6‐(3‐methylmorpholino)‐2‐(1H‐pyrrolo[2,3‐b]pyridin‐4‐yl)pyrimidin‐4‐yl)methyl)benzamide], for which the IC50 with MDA‐MB‐468 was 2.83 ± 0.06 µM; with MDA‐MB‐231, greater than 50 µM; at ATR it was 0.037 ± 0.0042 µM; against PARP1, 0.002 ± 0.0003 µM.
On to `C[C@@H]1COCCN1c1cc(C2(NC(=O)N3CCN(C(=O)c4cc(Cc5n[nH]c(=O)c6ccccc56)ccc4F)CC3)CC2)nc(-c2ccnc3[nH]ccc23)n1` [Compound A6, (R)‐4‐(2‐fluoro‐5‐((4‐oxo‐3,4‐dihydrophthalazin‐1‐yl)methyl)benzoyl)‐N‐(1‐(6‐(3‐methylmorpholino)‐2‐(1H‐pyrrolo[2,3‐b]pyridin‐4‐yl)pyrimidin‐4‐yl)cyclopropyll)piperazine‐1‐carboxamide], for which the IC50 in the assay on MDA‐MB‐468 was 1.15 ± 0.01 µM; in the assay on MDA‐MB‐231 it was 4.16 ± 1.09 µM; on ATR it was greater than 0.5 µM; against PARP1, 0.00098 ± 0.00088 µM; in the assay with MDA‐MB‐436, 0.59 ± 0.01 µM.
Take `C[C@@H]1COCCN1c1cc(C2(NC(=O)c3ccc(C(=O)N4CCN(C(=O)c5cc(Cc6n[nH]c(=O)c7ccccc67)ccc5F)CC4)nc3)CC2)nc(-c2ccnc3[nH]ccc23)n1` [Compound A9, (R)‐6‐(4‐(2‐fluoro‐5‐((4‐oxo‐3,4‐dihydrophthalazin‐1‐yl)methyl)benzoyl)piperazine‐1‐carbonyl)‐N‐(1‐(6‐(3‐methylmorpholino)‐2‐(1H‐pyrrolo[2,3‐b]pyridin‐4‐yl)pyrimidin‐4‐yl)cyclopropyl)nicotinamide]: the IC50 was 0.75 ± 0.16 µM with MDA‐MB‐468, greater than 50 µM in the assay with MDA‐MB‐231, 0.032 ± 0.0093 µM at ATR and 0.0006 ± 6e-05 µM against PARP1.
On to `C[C@@H]1COCCN1c1cc(C2(NC(=O)C3CCN(C(=O)c4cc(Cc5n[nH]c(=O)c6ccccc56)ccc4F)CC3)CC2)nc(-c2ccnc3[nH]ccc23)n1` [Compound A5, (R)‐1‐(2‐fluoro‐5‐((4‐oxo‐3,4‐dihydrophthalazin‐1‐yl)methyl)benzoyl)‐N‐(1‐(6‐(3‐methylmorpholino)‐2‐(1H‐pyrrolo[2,3‐b]pyridin‐4‐yl)pyrimidin‐4‐yl)cyclopropyll)piperidine‐4‐carboxamide], for which the IC50 with MDA‐MB‐468 stood at 0.57 ± 0.08 µM; in the assay on MDA‐MB‐231 it was 3.63 ± 1.41 µM; on ATR, 0.143 ± 0.011 µM; against PARP1, 0.00108 ± 0.00074 µM; with MDA‐MB‐436 it was 0.57 ± 0.04 µM.
Consider `C[C@@H]1COCCN1c1cc(CNC(=O)CNC(=O)c2cc(Cc3n[nH]c(=O)c4ccccc34)ccc2F)nc(-c2ccnc3[nH]ccc23)n1` [Compound B2, (R)‐2‐fluoro‐N‐(2‐(((6‐(3‐methylmorpholino)‐2‐(1H‐pyrrolo[2,3‐b]pyridin‐4‐yl)pyrimidin‐4‐yl)methyl)amino)‐2‐oxoethyl)‐5‐((4‐oxo‐3,4‐dihydrophthalazin‐1‐yl)methyl)benzamide], for which the IC50 with MDA‐MB‐468 turned out to be 8.41 ± 0.61 µM; with MDA‐MB‐231 it was 10.58 ± 0.01 µM; on ATR, 0.168 ± 0.0078 µM; against PARP1, 0.016 ± 0.0024 µM. In addition, in the assay with MDA‐MB‐436, the inhibition at 5 µM came out at 40.3%.
For the molecule `C[C@@H]1COCCN1c1cc(CNC(=O)CCCNC(=O)c2cc(Cc3n[nH]c(=O)c4ccccc34)ccc2F)nc(-c2ccnc3[nH]ccc23)n1` [Compound B4, (R)‐2‐fluoro‐N‐(4‐(((6‐(3‐methylmorpholino)‐2‐(1H‐pyrrolo[2,3‐b]pyridin‐4‐yl)pyrimidin‐4‐yl)methyl)amino)‐4‐oxobutyl)‐5‐((4‐oxo‐3,4‐dihydrophthalazin‐1‐yl)methyl)benzamide], the IC50 in the assay with MDA‐MB‐468 was determined as 6.83 ± 0.1 µM; with MDA‐MB‐231, 14.3 ± 3.91 µM; on ATR it was 0.111 ± 0.0081 µM; against PARP1 it was 0.0062 ± 0.0009 µM. In addition, the inhibition at 5 µM in the assay with MDA‐MB‐436 stood at 47%.
`C[C@@H]1COCCN1c1cc(C2(NC(=O)CNC(=O)c3cc(Cc4n[nH]c(=O)c5ccccc45)ccc3F)CC2)nc(-c2ccnc3[nH]ccc23)n1` [Compound A2, (R)‐2‐fluoro‐N‐(2‐((1‐(6‐(3‐methylmorpholino)‐2‐(1H‐pyrrolo [2,3‐b]pyridin‐4‐yl)pyrimidin‐4‐yl)cyclopropyl)amino)‐2‐oxoethyl)‐5‐((4‐oxo‐3,4‐dihydrophthalazin‐1‐yl)methyl)benzamide]: the IC50 is greater than 50 µM in the assay with MDA‐MB‐468, 28.4 ± 1.65 µM with MDA‐MB‐231, 0.118 ± 0.014 µM on ATR and 0.012 ± 0.0028 µM against PARP1.
